A value given as a limit tells only on which side of the number the result lay.

For orientation: IC50 means the concentration that inhibits the measured activity by half.

This experiment has as its target T1, IKKε (Homo sapiens, UniProt Q14164).
T1 construct: His-tag; made in house; host or cells: Sf9 insect cells
T1 sequence (Q14164 1-716): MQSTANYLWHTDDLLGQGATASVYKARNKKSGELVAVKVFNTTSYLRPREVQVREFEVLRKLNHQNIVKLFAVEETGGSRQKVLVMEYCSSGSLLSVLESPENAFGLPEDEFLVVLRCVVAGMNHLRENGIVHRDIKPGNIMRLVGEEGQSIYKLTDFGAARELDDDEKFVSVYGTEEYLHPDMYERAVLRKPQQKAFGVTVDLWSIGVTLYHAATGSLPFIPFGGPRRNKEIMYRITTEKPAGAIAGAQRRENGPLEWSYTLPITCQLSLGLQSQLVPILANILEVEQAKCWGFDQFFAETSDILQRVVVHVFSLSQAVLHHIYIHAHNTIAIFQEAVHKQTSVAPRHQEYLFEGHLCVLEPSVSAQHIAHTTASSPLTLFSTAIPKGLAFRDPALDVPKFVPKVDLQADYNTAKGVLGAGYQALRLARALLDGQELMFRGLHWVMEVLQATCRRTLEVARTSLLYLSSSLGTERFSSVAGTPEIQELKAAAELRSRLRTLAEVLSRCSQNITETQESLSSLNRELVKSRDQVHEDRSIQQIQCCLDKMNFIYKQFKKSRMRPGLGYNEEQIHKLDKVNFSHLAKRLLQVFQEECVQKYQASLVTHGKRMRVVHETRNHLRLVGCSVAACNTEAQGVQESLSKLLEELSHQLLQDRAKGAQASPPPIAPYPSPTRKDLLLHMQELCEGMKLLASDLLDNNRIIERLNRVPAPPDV
Briefly: In-vitro IKKε kinase assay ([γ33]ATP filter-plate). It is filed as biochemical. The following applies: text bins; read-out: IC50 for inhibition of the kinase activity of IKKε. The gist of the method:
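His-tagged IKKε and TBK1 from Sf9 cells were assayed with myelin basic protein or casein and [γ33]ATP at 2×Km ATP (32 μM for IKKε, 60 μM for TBK1). Enzyme was 0.1 or 0.015 μg/ml for IKKε and 0.1 or 0.02 μg/ml for TBK1 (normal/sensitized). Reactions ran 30-45 min, were filter-captured, scintillation-counted, and normalized to DMSO after background subtraction.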
For the molecule `N#Cc1cc(-c2ccnc(Nc3cccc(-c4cccnc4)c3)n2)ccc1OC1CCOCC1` [compound 549, 5-(2-{[3-(Pyridin-3-yl)phenyl]amino}pyrimidin-4-yl)-2-(tetrahydro-2H-pyran-4-yloxy)benzonitrile], the IC50 was below 5 nM. With `N#Cc1cc(-c2ccnc(Nc3ccc(-c4cccnc4)cc3)n2)ccc1OC1CCOCC1` [compound 550, 5-(2-{[4-(Pyridin-3-yl)phenyl]amino}pyrimidin-4-yl)-2-(tetrahydro-2H-pyran-4-yloxy)benzonitrile], the IC50 was below 5 nM.

Take `N#Cc1cc(-c2ccnc(Nc3cccc(-n4ccnc4)c3)n2)ccc1OC1CCOCC1` [compound 560, 5-(2-{[3-(1H-Imidazol-1-yl)phenyl]amino}pyrimidin-4-yl)-2-(tetrahydro-2H-pyran-4-yloxy)benzonitrile]: the IC50 was below 5 nM.

Consider `N#Cc1cccc(-c2nc(Nc3ccc(N4CCOCC4)cc3)nc3[nH]cnc23)c1` [compound 562, 3-(2-{[4-(Morpholin-4-yl)phenyl]amino}-3H-purain-6-yl)benzonitrile], for which the IC50 fell in the range of 50 to 500 nM. To `N#Cc1cc(-c2ccnc(Nc3cccc(-c4ccncc4)c3)n2)ccc1OC1CCOCC1` [compound 573, 5-(2-{[3-(Pyridin-4-yl)phenyl]amino}pyrimidin-4-yl)-2-(tetrahydro-2H-pyran-4-yloxy)benzonitrile] belongs below 5 nM; to `N#Cc1cc(-c2ccnc(Nc3ccc(S(=O)(=O)Nc4nccs4)cc3)n2)ccc1OC1CCOCC1` [compound 575, 4-({4-[3-Cyano-4-(tetrahydro-2H-pyran-4-yloxy)phenyl]pyrimidin-2-yl}amino)-N-(1,3-thiazol-2-yl) benzenesulfonamide], below 5 nM. To `N#Cc1cc(-c2ccnc(Nc3cccc(Cn4ccnn4)c3)n2)ccc1OC1CCOCC1` [compound 576, 2-(Tetrahydro-2H-pyran-4-yloxy)-5-(2-{[3-(1H-1,2,3-triazol-1-ylmethyl)phenyl]amino}pyrimidin-4-yl)benzonitrile] belongs below 5 nM; to `N#Cc1cc(-c2ccnc(Nc3ccc(-c4cn[nH]c4)cc3)n2)ccc1OC1CCOCC1` [compound 579, 5-(2-{[4-(1H-Pyrazol-4-yl)phenyl]amino}pyrimidin-4-yl)-2-(tetrahydro-2H-pyran-4-yloxy)benzonitrile], below 5 nM. The value for `N#Cc1cc(-c2ccnc(Nc3ccc(F)c(F)c3)n2)ccc1O[C@@H]1CCN(C(=O)CO)C1` [compound 582, 5-{2-[(3,4-Difluorophenyl)amino]pyrimidin-4-yl}-2-{[(3R)-1-(hydroxyacetyl)pyrrolidin-3-yl]oxy}benzonitrile] was 5 to 50 nM. For `Cn1cc(-c2ccc(Nc3nccc(-c4ccc(OC5CCOCC5)c(C#N)c4)n3)cc2)cn1` [compound 584, 5-(2-{[4-(1-Methyl-1H-pyrazol-4-yl)phenyl]amino}pyrimidin-4-yl)-2-(tetrahydro-2H-pyran-4-yloxy)benzonitrile], the IC50 is below 5 nM.

With `COc1cc(Nc2nccc(-c3ccc(OCC(C)C)c(C#N)c3)n2)ccc1C(=O)N1CC(OC)C1` [compound 587, 5-[2-({3-Methoxy-4-[(3-methoxyazetidin-1-yl)carbonyl]phenyl}amino)pyrimidin-4-yl]-2-(2-methylpropoxy) benzonitrile], the half-maximal inhibitory concentration (IC50) was below 5 nM. As for `N#Cc1cc(-c2ccnc(Nc3cccc(NC(=O)NC4CCC(O)CC4)c3)n2)ccc1OC1CCOCC1` (stereo not shown) [compound 589, 1-[3-({4-[3-Cyano-4-(tetrahydro-2H-pyran-4-yloxy)phenyl]pyrimidin-2-yl}amino)phenyl]-3-(4-hydroxycyclohexyl) urea], the IC50 was below 5 nM. To `N#Cc1cc(-c2ccnc(Nc3cccc(Cn4cnnc4)c3)n2)ccc1OC1CCOCC1` [compound 595, 2-(Tetrahydro-2H-pyran-4-yloxy)-5-(2-{[3-(4H-1,2,4-triazol-4-ylmethyl)phenyl]amino}pyrimidin-4-yl)benzonitrile] belongs below 5 nM; to `N#Cc1cc(-c2ccnc(Nc3cccc(NC(=O)N4CC(O)C4)c3)n2)ccc1OC1CCOCC1` [compound 598, N-[3-({4-[3-Cyano-4-(tetrahydro-2H-pyran-4-yloxy)phenyl]pyrimidin-2-yl}amino)phenyl]-3-hydroxyazetidin-1-carboxamide], below 5 nM; to `COC1CN(C(C)c2ccc(Nc3nccc(-c4ccc(O[C@@H]5CCN(C(=O)CO)C5)c(C#N)c4)n3)cc2)C1` (stereo partly shown) [compound 602], 5 to 50 nM.

As for `N#Cc1cc(-c2ccnc(Nc3cccc(N4CCN(CCO)CC4)c3)n2)ccc1O[C@@H]1CCN(C(=O)CO)C1` [compound 604, 2-{[(3R)-1-(Hydroxyacetyl)pyrrolidin-3-yl]oxy}-5-[2-({3-[4-(2-hydroxyethyl)piperazin-1-yl]phenyl}amino)pyrimidin-4-yl]benzonitrile], the IC50 is below 5 nM. For the molecule `N#Cc1cc(-c2ccnc(Nc3ccc(C#Cc4cccnc4)cc3)n2)ccc1OC1CCOCC1` [compound 605, 5-(2-{[4-(Pyridin-3-ylethynyl)phenyl]amino}pyrimidin-4-yl)-2-(tetrahydro-2H-pyran-4-yloxy)benzonitrile], the half-inhibitory concentration (IC50) was in the range of 5 to 50 nM. As to `N#Cc1cc(-c2ccnc(Nc3ccc(-c4ccncc4)cc3)n2)ccc1OC1CCOCC1` [compound 610, 5-(2-{[4-(Pyridin-4-yl)phenyl]amino}pyrimidin-4-yl)-2-(tetrahydro-2H-pyran-4-yloxy)benzonitrile], the IC50 is below 5 nM. For `N#Cc1cc(-c2ccnc(Nc3ccc(CN4CC(O)C4)cc3)n2)ccc1O[C@@H]1CCN(C(=O)CO)C1` [compound 615, 2-{[(3R)-1-(Hydroxyacetyl)pyrrolidin-3-yl]oxy}-5-[2-({4-[(3-hydroxyazetidin-1-yl)methyl]phenyl}amino)pyrimidin-4-yl]benzonitrile], the IC50 is below 5 nM. As for `COc1cc(Nc2nccc(-c3ccc(OCC4CC4)c(C#N)c3)n2)ccc1C(=O)N1CC(OC)C1` [compound 621, 2-(Cyclopropylmethoxy)-5-[2-({3-methoxy-4-[(3-methoxyazetidin-1-yl)carbonyl]phenyl}amino)pyrimidin-4-yl]benzonitrile], the IC50 was below 5 nM.

Turning to `N#Cc1cc(-c2ccnc(Nc3cccc(NC(=O)NCCO)c3)n2)ccc1OC1CCOCC1` [compound 622, 1-[3-({4-[3-Cyano-4-(tetrahydro-2H-pyran-4-yloxy)phenyl]pyrimidin-2-yl}amino)phenyl]-3-(2-hydroxyethyl)urea], the IC50 is below 5 nM. To `N#Cc1cc(-c2ccnc(Nc3ccc(N4CCOCC4)cc3)n2)ccc1O[C@H]1CCN(C(=O)CO)C1` [compound 623, 2-{[(3S)-1-(Hydroxyacetyl)pyrrolidin-3-yl]oxy}-5-(2-{[4-(morpholin-4-yl)phenyl]amino}pyrimidin-4-yl)benzonitrile] belongs 5 to 50 nM; to `CC(=O)NS(=O)(=O)c1ccc(Nc2nccc(-c3ccc(OC4CCOCC4)c(C#N)c3)n2)cc1` [compound 630], below 5 nM; to `Cc1ccnc(NS(=O)(=O)c2ccc(Nc3nccc(-c4ccc(OC5CCOCC5)c(C#N)c4)n3)cc2)n1` [compound 635, 4-({4-[3-Cyano-4-(tetrahydro-2H-pyran-4-yloxy)phenyl]pyrimidin-2-yl}amino)-N-(4-methylpyrimidin-2-yl)benzene-sulfonamide], below 5 nM. To `N#Cc1cc(-c2ccnc(Nc3ccc(CN4CCN(CCO)CC4)cc3)n2)ccc1O[C@@H]1CCN(C(=O)CO)C1` [compound 636, 2-{[(3R)-1-(Hydroxyacetyl)pyrrolidin-3-yl]oxy}-5-{2-[(4-{[4-(2-hydroxyethyl)piperazin-1-yl]methyl}phenyl)amino]pyrimidin-4-yl}benzonitrile] belongs below 5 nM; to `COC1CN(c2cccc(Nc3nccc(-c4ccc(O[C@@H]5CCN(C(=O)CO)C5)c(C#N)c4)n3)c2)C1` [compound 639], below 5 nM. For `N#Cc1cc(-c2ccnc(Nc3cccc(F)c3)n2)ccc1O[C@@H]1CCN(C(=O)CO)C1` [compound 641, 5-{2-[(3-Fluorophenyl)amino]pyrimidin-4-yl}-2-{[(3R)-1-(hydroxyacetyl)pyrrolidin-3-yl]oxy}benzonitrile], the IC50 fell in the range of 5 to 50 nM. As to `CC(C)(O)CNC(=O)Nc1cccc(Nc2nccc(-c3ccc(OC4CCOCC4)c(C#N)c3)n2)c1` [compound 649, 1-[3-({4-[3-Cyano-4-(tetrahydro-2H-pyran-4-yloxy)phenyl]pyrimidin-2-yl}amino)phenyl]-3-(2-hydroxy-2-methylpropyl)urea], the IC50 was below 5 nM.

(Values after patent publication US20150352108A1, “AMINO-PYRIMIDINE COMPOUNDS AS INHIBITORS OF TBK1 AND/OR IKK EPSILON” (Alzheimer's Institute of America, priority 2009, published 2015).)
